Source: the supplement of paper PMC10307832

Assays:
Assay in all cases: relative viability (nuclei count vs DMSO), 5 days (fraction); higher = more cells survive
[1] = compound: C[C@@H](C(=O)N[C@@H](C1CCCCC1)C(=O)N2CCC[C@H]2C(=O)N[C@@H]3[C@@H](CC4=CC=CC=C34)OCC#CC#CCO[C@@H]5CC6=CC=CC=C6[C@@H]5NC(=O)[C@@H]7CCCN7C(=O)[C@H](C8CCCCC8)NC(=O)[C@H](C)NC)NC [AZD5582] + C[C@]1(O)C[C@@H](c2nc(-c3ccc4ccc(-c5ccccc5)nc4c3)c3c(N)nccn32)C1 [Linsitinib] (partner 1 µM)
Summary of the method: (§1)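 One day after seeding in 1536-well plates, lung cancer cell lines were dosed by pin tool. Dosing was either single-drug or a fixed anchor-drug dose plus five library-drug doses (not always all listed) in √10 steps. After 5 days, nuclei were stained in one fix-and-stain step and counted on 4× images, and relative viability is the nuclei count of treated wells over that of vehicle wells, given as the median of duplicate plates.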

[2] = compound: Cn1nnc2c(C(N)=O)ncn2c1=O [Temozolomide] + Nc1ncn([C@H]2C[C@H](O)[C@@H](CO)O2)c(=O)n1 [Decitabine] (partner 2 µM)
Summary of the method: as §1

[3] = compound: Cn1nnc2c(C(N)=O)ncn2c1=O [Temozolomide] + CC(=O)c1c(C)c2cnc(Nc3ccc(N4CCNCC4)cn3)nc2n(C2CCCC2)c1=O [Palbociclib] (partner 0.5 µM)
Summary of the method: as §1

[4] = compound: C[C@@H](C(=O)N[C@@H](C1CCCCC1)C(=O)N2CCC[C@H]2C(=O)N[C@@H]3[C@@H](CC4=CC=CC=C34)OCC#CC#CCO[C@@H]5CC6=CC=CC=C6[C@@H]5NC(=O)[C@@H]7CCCN7C(=O)[C@H](C8CCCCC8)NC(=O)[C@H](C)NC)NC [AZD5582] + C[C@@H](Oc1cc(-c2cnn(C3CCNCC3)c2)cnc1N)c1c(Cl)ccc(F)c1Cl [Crizotinib] (partner 1 µM)
Summary of the method: as §1

Cell Line | relative viability ([1]; first compound 0.001581 µM) | relative viability ([1]; first compound 0.005 µM) | relative viability ([1]; first compound 0.01581 µM) | relative viability ([1]; first compound 0.05 µM) | relative viability ([2]; first compound 0.2 µM) | relative viability ([2]; first compound 0.6325 µM) | relative viability ([2]; first compound 2 µM) | relative viability ([2]; first compound 6.325 µM) | relative viability ([2]; first compound 20 µM) | relative viability ([3]; first compound 0.2 µM) | relative viability ([3]; first compound 0.6325 µM) | relative viability ([3]; first compound 2 µM) | relative viability ([3]; first compound 6.325 µM) | relative viability ([3]; first compound 20 µM) | relative viability ([4]; first compound 0.001581 µM) | relative viability ([4]; first compound 0.005 µM) | relative viability ([4]; first compound 0.01581 µM) | relative viability ([4]; first compound 0.05 µM)
SK-MES-1 | 1.1 | 1.16 | 1.04 | 1.17 | 0.417 | 0.391 | 0.362 | 0.335 | 0.368 | 0.328 | 0.312 | 0.332 | 0.353 | 0.332 | 0.992 | 1.02 | 0.941 | 1.04
SW 1573 | 0.918 | 0.834 | 0.801 | 0.916 | 0.589 | 0.535 | 0.577 | 0.456 | 0.462 | 0.502 | 0.44 | 0.467 | 0.4 | 0.429 | 0.686 | 0.717 | 0.815 | 0.858
UMC-11 | 0.931 | 1.07 | 0.96 | 1.11 | 0.462 | 0.628 | 0.614 | 0.524 | 0.521 | 0.312 | 0.38 | 0.3 | 0.286 | 0.321 | 0.534 | 0.671 | 0.578 | 0.493
